Assay results reported in publication PMC6213047, “Design of Antibacterial Agents: Alkyl Dihydroxybenzoates against Xanthomonas citri subsp. citri” (International Journal of Molecular Sciences, 2018).
Where two headings read alike, the source gives them in different places.

Columns and labels:
[1] = Partition coefficient log Po/w by HPLC (OECD 117); type: physicochemical; conditions: HPLC method, OECD 117, methanol:water 3:1
Description: The analyses were performed with the use of an isocratic flow in methanol: water (3:1) at 1.0 mL min^−1. We injected 20.0 μL and analyses were performed at 254 nm. We used as reference compounds thiourea, phenol, acetophenone, benzoic acid, benzene, toluene, biphenyl, fluoranthene and triphenylamine in order to construct the curve log K × log Po/w. The lipophilicity of alkyl dihydroxybenzoates was determined from their retention times and interpolation in linearity curve log K × log Po/w. We performed the analyses in duplicate.

[2] = test system: X. citri subsp. citri strain 306 (IBSBF 1594); test: MIC by Resazurin Microtiter Assay (REMA); type: cell-based, Xanthomonas citri subsp. citri; conditions: Xanthomonas citri, 12 h
Description: The antibacterial potential of carboxylic acids and their esters were compared to copper oxychloride (a commercial active often used to combat citrus canker). Minimal inhibitory concentration (MIC) values were determined by REMA assay, which measures cellular respiratory activity.
(§1) The antibacterial activity of alkyl dihydroxybenzoates and the determination of minimum inhibition concentration (MIC) were performed by the fluorimetric method Resazurin Microtiter Assay (REMA) with some modifications. An overnight culture of X. citri subsp. citri strain 306 (IBSBF 1594) was grown in 20 mL in Nitrogen Yeast Glycerol (NYG) at 29 °C in constant agitation of 180–200 rpm. After 12 h, the Xcc inoculum was dispersed in NYG medium and distributed into a 96 well microtiter plate to a final volume of 100 μL per well (10^5 CFU per well). Stock solutions of tested compounds at 10 mg mL^−1 were prepared in dimethyl sulfoxide (DMSO) and dispersed in NYG medium to obtain 1% DMSO and the final compound concentration range of 0.78–100 μg mL^−1. The negative control was constituted of 100 μL culture medium. In addition, the copper oxychloride was tested as a comparison to alkyl dihydroxybenzoates and kanamycin (20 μg mL^−1), which was used as a control antibiotic. The plate was subsequently incubated at 29 °C for 12 h, and 15 μg mL^−1 freshly prepared resazurin solution in water was added to each well, and the plate was incubated for 2 h. The fluorescence was determined on a Synergy H1 (BioTek, Winooski, VT, USA) microplate reader using the excitation and emission filters at wavelengths of 530 and 590 nm respectively. After the REMA assay, the minimum bactericidal concentration (CBM) assay was performed using a 96-pin stainless steel plate replicator, accurately transferring the wells from the REMA plate to Petri dishes Petri dishes were incubated in oven B.O.D. at 29 °C for 24 to 48 h. The experiments were performed in triplicate.

[3] = test system: X. citri subsp. citri strain 306 (IBSBF 1594); test: MBC, REMA plates replicated to Petri dishes; type: cell-based, Xanthomonas citri subsp. citri; conditions: Xanthomonas citri
Description: The minimal bactericidal concentration (MBC) was determined by observing the bacterial growth in Petri dishes transferred from the REMA plates.
as §1

[4] = REMA, NYG medium, 29 °C, read-out: MIC
[5] = REMA, NYG medium, 29 °C, read-out: MIC in μM
[6] = Petri dishes from REMA plates, 29 °C, 24 to 48 h, read-out: MBC

Row | SMILES | chromatographic logP [1] | MIC [2, 4] | MIC [2, 5] | MBC [3, 6] | MIC ([2]; REMA, NYG medium, 29 °C) | MIC ([2]; read-out: MIC in μM, REMA, NYG medium, 29 °C, 12 h) | MBC [3]
1 | O=C(OC1CCCC1)c1ccc(O)c(O)c1 [Compound 34] | 2.2 | > 100 µg/mL | > 450 µM | > 100 µg/mL | – | – | –
2 | O=C(OC1CCCC1)c1ccc(O)cc1O [Compound 10] | 2.2 | > 100 µg/mL | > 450 µM | > 100 µg/mL | – | – | –
3 | CCCCCCCCCCOC(=O)c1ccc(O)c(O)c1 [Compound 31] | – | – | – | – | > 100 µg/mL | > 340 µM | 100 µg/mL
4 | O=C(OCCc1ccccc1)c1ccc(O)c(O)c1 [Compound 36] | 2.4 | < 100 µg/mL | 345 µM | 100 µg/mL | – | – | –
5 | CC(C)OC(=O)c1cc(O)ccc1O [Compound 21] | 2.2 | > 100 µg/mL | > 510 µM | > 100 µg/mL | – | – | –
6 | O=C(OC1CCCCC1)c1ccc(O)c(O)c1 [Compound 35] | 2.7 | > 100 µg/mL | > 423 µM | > 100 µg/mL | – | – | –
7 | CCCCOC(=O)c1ccc(O)cc1O [Compound 2] | 3.9 | – | 189 µM | 50 µg/mL | – | – | –
8 | CCCCCCCCOC(=O)c1cc(O)ccc1O [Compound 17] | 5.2 | > 100 µg/mL | > 375 µM | > 100 µg/mL | – | – | –
9 | CCCCCCCCOC(=O)c1ccc(O)cc1O [Compound 5] | 6.1 | > 100 µg/mL | > 375 µM | > 100 µg/mL | – | – | –
10 | O=C(OC1CCCCC1)c1cc(O)ccc1O [Compound 23] | 3.5 | 90.4 µg/mL | 382 µM | 100 µg/mL | – | – | –
11 | CC(C)OC(=O)c1ccc(O)cc1O [Compound 9] | 2.6 | > 100 µg/mL | > 510 µM | > 100 µg/mL | – | – | –
12 | CCCCCCOC(=O)c1ccc(O)cc1O [Compound 3] | 5 | – | 84 µM | 50 µg/mL | – | – | –
13 | CCCCCCCCCOC(=O)c1ccc(O)c(O)c1 [Compound 30] | 5.5 | 26.7 µg/mL | 95 µM | 50 µg/mL | – | – | –
14 | CCCCOC(=O)c1cc(O)ccc1O [Compound 14] | 3.4 | > 100 µg/mL | > 475 µM | > 100 µg/mL | – | – | –
15 | O=C(OCCc1ccccc1)c1cc(O)ccc1O [Compound 24] | 3.1 | 59.7 µg/mL | 231 µM | 100 µg/mL | – | – | –
16 | CCCCCCCCOC(=O)c1ccc(O)c(O)c1 [Compound 29] | 4.9 | 31.2 µg/mL | 117 µM | 50 µg/mL | – | – | –
17 | CCCCCCOC(=O)c1cc(O)ccc1O [Compound 15] | 4.5 | – | 140 µM | 50 µg/mL | – | – | –
18 | CCCCCCCCCCOC(=O)c1ccc(O)cc1O [Compound 7] | 6.9 | > 100 µg/mL | > 340 µM | > 100 µg/mL | – | – | –

Row | SMILES | chromatographic logP [1] | MIC [2, 4] | MIC [2, 5] | MBC [3, 6] | MIC ([2]; REMA, NYG medium, 29 °C) | MIC ([2]; read-out: MIC in μM, REMA, NYG medium, 29 °C, 12 h) | MBC [3]
19 | CCOC(=O)c1ccc(O)c(O)c1 [Compound 25] | 1.7 | > 100 µg/mL | > 549 µM | > 100 µg/mL | – | – | –
20 | CCCCCCCCCCCCOC(=O)c1cc(O)ccc1O [Compound 20] | 6.8 | > 100 µg/mL | > 310 µM | > 100 µg/mL | – | – | –
21 | O=C(OC1CCCCC1)c1ccc(O)cc1O [Compound 11] | 4 | – | 171 µM | 100 µg/mL | – | – | –
22 | O=C(O)c1ccc(O)c(O)c1 [3,4 DHB acid, 3,4 dihydroxybenzoic acid, reference compound] | 0.8 | > 100 µg/mL | > 648 µM | > 100 µg/mL | – | – | –
23 | CCCCCCCCCCCCOC(=O)c1ccc(O)c(O)c1 [Compound 32] | 6.9 | > 100 µg/mL | > 310 µM | > 100 µg/mL | – | – | –
24 | CCOC(=O)c1cc(O)ccc1O [Compound 13] | 2.4 | > 100 µg/mL | > 549 µM | > 100 µg/mL | – | – | –
25 | CCCCOC(=O)c1ccc(O)c(O)c1 [Compound 26] | 2.6 | > 100 µg/mL | > 475 µM | > 100 µg/mL | – | – | –
26 | CCCCCCOC(=O)c1ccc(O)c(O)c1 [Compound 27] | 3.7 | 44.4 µg/mL | 186 µM | 50 µg/mL | – | – | –
27 | CCCCCCCCCOC(=O)c1ccc(O)cc1O [Compound 6] | 6.2 | > 100 µg/mL | > 356 µM | > 100 µg/mL | – | – | –
28 | CC(C)OC(=O)c1ccc(O)c(O)c1 [Compound 33] | 1.4 | > 100 µg/mL | > 510 µM | > 100 µg/mL | – | – | –
29 | O=C(O)c1cc(O)ccc1O [2,5 DHB acid, 2,5 dihydroxybenzoic acid, reference compound] | 2.8 | > 100 µg/mL | > 648 µM | > 100 µg/mL | – | – | –
30 | CCCCCCCCCCCCOC(=O)c1ccc(O)cc1O [Compound 8, dodecyl 2,4 dihydroxybenzoate] | 7 | > 100 µg/mL | > 310 µM | > 100 µg/mL | – | – | –
31 | O=C(O)c1ccc(O)cc1O [2,4 DHB acid, 2,4 dihydroxybenzoic acid, reference compound] | 2.6 | > 100 µg/mL | > 648 µM | > 100 µg/mL | – | – | –
32 | CCCCCCCCCOC(=O)c1cc(O)ccc1O [Compound 18] | 5.7 | > 100 µg/mL | > 357 µM | > 100 µg/mL | – | – | –
33 | CCOC(=O)c1ccc(O)cc1O [Compound 1] | 2.8 | > 100 µg/mL | > 548 µM | > 100 µg/mL | – | – | –
34 | O=C(OC1CCCC1)c1cc(O)ccc1O [Compound 22] | 3 | 83.5 µg/mL | 375 µM | 100 µg/mL | – | – | –
35 | CCCCCCCCCCOC(=O)c1cc(O)ccc1O [Compound 19] | 6.3 | > 100 µg/mL | > 340 µM | > 100 µg/mL | – | – | –
